# In ChEMBL document CHEMBL1151947, “Synthesis, potency, and in vivo evaluation of 2-piperazin-1-ylquinoline analogues as dual serotonin reuptake inhibitors and serotonin 5-HT1A receptor antagonists” (J Med Chem, 2009):
# Experiments:
# [1] = target: T1, 5-hydroxytryptamine receptor 1A (Homo sapiens, UniProt P08908)
# T1 sequence (P08908 whole entry): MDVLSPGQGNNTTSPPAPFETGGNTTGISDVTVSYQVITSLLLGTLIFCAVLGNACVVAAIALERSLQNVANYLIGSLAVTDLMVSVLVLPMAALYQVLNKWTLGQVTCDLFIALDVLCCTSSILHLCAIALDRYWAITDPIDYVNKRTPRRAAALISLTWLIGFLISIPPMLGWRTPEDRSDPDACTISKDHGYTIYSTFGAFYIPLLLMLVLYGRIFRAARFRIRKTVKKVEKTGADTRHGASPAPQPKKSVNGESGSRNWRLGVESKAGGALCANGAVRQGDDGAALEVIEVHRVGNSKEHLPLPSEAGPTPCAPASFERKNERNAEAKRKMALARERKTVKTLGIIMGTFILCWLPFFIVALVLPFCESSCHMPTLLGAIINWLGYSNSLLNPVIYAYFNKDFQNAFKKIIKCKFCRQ
# Description: Antagonist activity at human 5HT1A receptor expressed in CHO cells assessed as stimulation of [35S]GTPgammaS binding
# [2] = target: T2, 5-hydroxytryptamine receptor 1A (Homo sapiens) (UniProt P08908); test: Antagonist activity at human 5HT1A receptor expressed in CHO cells assessed as inhibition of [35S]GTPgammaS binding relative to control; type: functional, cell-based
# T2 sequence (whole entry): T1 sequence (P08908 whole entry)
# [3] = target: Sodium-dependent serotonin transporter (Rattus norvegicus, UniProt P31652)
# Sodium-dependent serotonin transporter (Rattus norvegicus, UniProt P31652), sequence (P31652 whole entry): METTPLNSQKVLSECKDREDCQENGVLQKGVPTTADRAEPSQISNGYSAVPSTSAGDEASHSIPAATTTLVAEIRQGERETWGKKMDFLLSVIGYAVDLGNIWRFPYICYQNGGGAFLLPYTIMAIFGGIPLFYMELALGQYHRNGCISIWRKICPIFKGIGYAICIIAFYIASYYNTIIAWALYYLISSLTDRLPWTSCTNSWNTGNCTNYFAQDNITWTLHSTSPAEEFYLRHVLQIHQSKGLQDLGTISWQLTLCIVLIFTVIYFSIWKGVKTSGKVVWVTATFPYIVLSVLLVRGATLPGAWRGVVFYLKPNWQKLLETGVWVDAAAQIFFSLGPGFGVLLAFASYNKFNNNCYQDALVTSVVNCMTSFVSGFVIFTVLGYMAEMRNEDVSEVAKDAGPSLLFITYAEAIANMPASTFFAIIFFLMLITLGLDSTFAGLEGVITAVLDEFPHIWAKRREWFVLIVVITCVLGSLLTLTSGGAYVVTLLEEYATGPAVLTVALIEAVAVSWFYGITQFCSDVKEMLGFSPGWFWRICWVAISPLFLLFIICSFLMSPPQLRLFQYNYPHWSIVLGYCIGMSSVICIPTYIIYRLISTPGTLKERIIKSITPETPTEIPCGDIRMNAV
# Description: Displacement of [3H]paroxetine from 5HT transporter in rat cortical membrane
# [4] = target: T1, 5-hydroxytryptamine receptor 1A; test: biochemical
# Description: Displacement of [3H]8-OH-DPAT from human 5HT1A receptor expressed in CHO cells
# [5] = target: Sodium-dependent serotonin transporter (Homo sapiens, UniProt P31645); test: Antagonist activity at human 5HT transporter expressed in staurosporine treated human JAR cells; type: functional, cell-based
# Sodium-dependent serotonin transporter (Homo sapiens, UniProt P31645), sequence (P31645 whole entry): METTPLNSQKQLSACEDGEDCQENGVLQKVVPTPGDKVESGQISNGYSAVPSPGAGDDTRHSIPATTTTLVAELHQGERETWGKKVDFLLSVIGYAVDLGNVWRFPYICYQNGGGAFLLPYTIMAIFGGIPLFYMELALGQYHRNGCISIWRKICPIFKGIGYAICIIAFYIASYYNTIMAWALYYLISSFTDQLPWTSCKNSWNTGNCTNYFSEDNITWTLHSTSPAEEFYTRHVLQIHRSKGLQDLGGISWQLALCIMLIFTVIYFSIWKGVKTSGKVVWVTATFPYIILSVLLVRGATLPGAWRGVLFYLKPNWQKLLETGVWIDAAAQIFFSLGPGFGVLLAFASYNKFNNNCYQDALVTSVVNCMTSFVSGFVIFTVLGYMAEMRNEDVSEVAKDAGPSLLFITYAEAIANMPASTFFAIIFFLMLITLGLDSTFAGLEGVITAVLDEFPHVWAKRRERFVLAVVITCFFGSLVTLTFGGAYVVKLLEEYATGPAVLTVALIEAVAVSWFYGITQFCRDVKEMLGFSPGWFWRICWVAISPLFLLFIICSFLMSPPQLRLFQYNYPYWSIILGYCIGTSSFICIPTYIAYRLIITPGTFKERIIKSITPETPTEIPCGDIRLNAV
# [6] = target: Sodium-dependent serotonin transporter (Rattus norvegicus) (UniProt P31652); test: Ratio Ki for drug to Ki for (2S)-8-Methyl-2-{[4-(6-nitroquinolin-2-yl)piperazin-1-yl]- methyl}-2,3-dihydro[1,4]dioxino[2,3-f ]quinoline against 5HT transporter in rat cortical membrane; type: cell membranes
# Sodium-dependent serotonin transporter (Rattus norvegicus), sequence (P31652 whole entry): as the sequence (P31652 whole entry) above
Compound,IC50 [1] [nM],Imax [2] [%],Ki [3] [nM],Ki [4] [nM],Ratio Ki [6],IC50 [5] [nM]
Cc1ccc2c3c(ccc2n1)OC[C@H](CN1CCN(c2ccc4cc(C(N)=O)ccc4n2)CC1)O3,164,100,17,,,
Cc1ccc2c3c(ccc2n1)OC[C@H](CN1CCN(c2ccc4cc(Br)ccc4n2)CC1)O3,156,96,12.7,,,
Cc1ccc2c3c(ccc2n1)OC[C@H](CN1CCN(c2ccc4ccccc4n2)CC1)O3,4870,100,75,,,
Cc1ccc2c3c(ccc2n1)OC[C@H](CN1CCN(c2ccc4cc(OC(F)(F)F)ccc4n2)CC1)O3,588,85,148,172,,
Cc1ccc2c3c(ccc2n1)OC[C@H](CN1CC=C(c2c[nH]c4ccccc24)CC1)O3,56.7,98.3,2.34,3.02,,145
Cc1ccc2c3c(ccc2n1)OC[C@H](CN1CCN(c2ccc4ccccc4n2)C[C@@H]1C)O3,1900,76.5,10.3,,,
Cc1ccc2c3c(ccc2n1)OC[C@H](CN1CCN(c2ccc4cc([N+](=O)[O-])ccc4n2)CC1)O3,294,79,,,9,
Cc1ccc2c3c(ccc2n1)OC[C@H](CN1CCN(c2ccc4cc(C#N)ccc4n2)C[C@H]1C)O3,180,92,89.6,2.8,,
Cc1ccc2c3c(ccc2n1)OC[C@H](CN1CCN(c2ccc4cc(Cl)ccc4n2)CC1)O3,781,62,0.88,,,
Cc1ccc2c3c(ccc2n1)OC[C@H](CN1CCN(c2ccc4cc(F)ccc4n2)CC1)O3,2170,100,66,32.9,,

# Continued by falling IC50 [1], values first:
IC50 [1] [nM],Imax [2] [%],Ki [3] [nM],Ki [4] [nM],Ratio Ki [6],Compound,IC50 [5] [nM]
117,85,,,,Cc1ccc2c3c(ccc2n1)OC[C@H](CN1CCN(c2ccc4ccccc4n2)C[C@H]1C)O3,
70,74,3.9,1.5,,Cc1ccc2c3c(ccc2n1)OC[C@H](CN1CCCN(c2ccc4cc(F)ccc4n2)CC1)O3,
70,58,7.4,6.8,,Cc1ccc2c3c(ccc2n1)OC[C@H](CN1CCCN(c2ccc4ccccc4n2)CC1)O3,
58,53,,2,,Cc1ccc2c3c(ccc2n1)OC[C@H](CN1CCCN(c2ccc4cc(C#N)ccc4n2)CC1)O3,
